Measurements published in US20250144099A1, “INK4 TUMOR SUPPRESSOR PROTEINS MEDIATE RESISTANCE TO CDK4/6 KINASE INHIBITORS” (MEMORIAL SLOAN-KETTERING CANCER CENTER, priority 2021, published 2025).
Entries after “also recorded” stand apart in the source; their conditions may differ.

Assays:
phosphorylation of Rb = assay: Immunoblotting of Rb phosphorylation in cells; type: cell-based, human; settings: FAT1 loss / CDK6-high CDK4/6i-resistant MCF7 cells
Method: (§1) Cell lysates were collected in RIPA buffer (Thermo Fisher Scientific) supplemented with protease and phosphatase inhibitors (Pierce). Protein concentration was quantified by using the BCA kit (Fisher Scientific). […] of protein lysates were loaded onto 4-12% SDS-PAGE gels (Invitrogen) for electrophoresis and transferred onto nitrocellular membranes. Blots were blocked with Intercept™ (TBS) Blocking Buffer (LI-COR Bioscience #927-60001) and incubated with primary antibody at 4° C. overnight. Secondary antibodies conjugated with fluorescence (LI-COR Bioscience #926-68071 and #926-32210) were incubated for 1 h at room temperature and blots were scanned by Odyssey Clx Imaging System from LI-COR Bioscience.

CDK4 = target: T1, CDK4 (Homo sapiens, UniProt P11802); assay: Immunoblotting of CDK4 degradation in cells; type: cell-based
T1 construct: CDK4 and CDK6 were immunoprecipitated from isogenic drug sensitive (MCF7 parental cells with low CDK6); endogenous in cells; host or cells: MCF-7 parental and MCF-7 FAT1 CRISPR knockout (CDK6-high) cells
Method: as §1

CDK6 = CDK6 (Homo sapiens, UniProt Q00534); assay: Immunoblotting of CDK6 degradation in cells; type: cell-based; design: MCF7 cells that lost FAT1 expression and with high CDK6 expression; endogenous in cells; host or cells: MCF-7 FAT1 loss cells (also MCF-7 parental)
Method: as §1

Pharmacokinetic study = type: in vivo, C57BL/6 male mice
Method: Pharmacokinetic study. C57BL/6 male mice were dosed with BSJ-05-017 solution formulation (i.p., 5/95 DMSO/10% captisol, dose 25 mg/kg) and BSJ-03-096 solution formulation (p.o., 5/95 DMSO/10%, dose 10 mg/kg). Blood samples were collected at 0.08, 0.25, 0.5, 1, 2, 4, 6, 8 and 24 hr. The blood samples were collected from sets of three mice at each time point in microcentrifuge tubes containing K2EDTA as an anticoagulant. Plasma samples were separated by centrifugation and stored below −70° C. until bioanalysis. All samples were processed for analysis by precipitation using acetonitrile and analyzed with a partially validated LC/MS/MS method (LLOQ −1.22 ng/mL for IV and PO, LLOQ −5.02 ng/mL for IP). Pharmacokinetic parameters were calculated using the noncompartmental analysis tool of WinNonlin Enterprise software (Version 6.3).

[1] = test system: MCF7 parental cell-derived xenografts; assay: Efficacy study, cell-derived xenograft; type: in vivo, NSG mice; settings: ribociclib 25 mg/kg p.o., BSJ-05-017 50 mg/kg i.p., BSJ-03-096 50 mg/kg p.o., 25-35 days
Method: (§2) Efficacy study. NOD.Cg-Prkdc Il2rg<tm1Wjl>/SzJ (NSG) mice were obtained from the Jackson Laboratory (Stock #: 005557). Each mouse was injected with MCF7 parental, CDK6-ovexpressing or PTEN loss cells subcutaneously 1 week after the implantation of estradiol pellets (25 mg). […] Tumor volumes were recorded every 3-4 days. Mice were sacrificed if tumors reached 1000 mm^3 or at the end of the experiment. Tumors were collected and processed as described above.

[2] = test system: CDK6-overexpressing xenografts; assay: Efficacy study, cell-derived xenograft; type: in vivo, NSG mice; settings: 25-35 days
Method: as §2

[3] = test system: shPTEN (PTEN loss) xenografts; assay: Efficacy study, cell-derived xenograft; type: in vivo, NSG mice; settings: 25-35 days
Method: as §2

MOLT4 cells = assay: Global quantitative mass spectrometry proteomics; type: cell-based, human; settings: 250 nM, 5 h
Method: Molt4 cells were treated with 250 nM of compounds BSJ-05-017 or BSJ-03-096 (singlicate) or DMSO control (biological triplicate) for 5 hours. Cells were harvested by centrifugation and prepared for mass spectrometry as described previously (28). Data were collected as reported (28). LC-MS data were analyzed using Proteome Discoverer 2.4 (Thermo Fisher Scientific), as previously described (28). Reporter ion intensities were normalized and scaled using in-house scripts in the R framework (63). Statistical analysis was carried out using the limma package within the R framework (64).

[4] = test system: patient-derived xenograft models; assay: Patient-derived xenograft tumor growth; type: in vivo, mice; settings: two patient-derived xenograft models; ribociclib at clinical equivalent dose
MCF-7 parental cells = assay: Cell viability assay (Resazurin); type: cell-based, human; settings: day 7
Method: (§3) Cell viability was measured by Resazurin (R&D Systems, Minneapolis, MN, USA) as described previously (51). Briefly, 1,500 cells were seeded in a 96-well plate and allowed to recover overnight. Cells were treated with drugs at day 0. Resazurin was added to the cells 4 hours prior to the measurements on day 3, day 5 and day 7. Fluorescent intensity was measured using a microplate reader (SpectraMax M5, Molecular Devices, Sunnyvale, CA, USA). IC50 was calculated by GraphPad Prism 7.0 using a sigmoidal regression model.

[5] = test system: MCF-7 CDK6-high cells (FAT1 loss); assay: Cell viability assay (Resazurin); type: cell-based, human; settings: day 7
Method: as §3

[6] = FAT1 loss / CDK6-high CDK4/6i-resistant MCF7 cells, 24 h treatment
[7] = BSJ-05-017 50 mg/kg i.p., BSJ-03-096 50 mg/kg p.o.
[8] = MCF7 cells with overexpression of CDK6

Chain of CDK6 (Q00534 whole entry): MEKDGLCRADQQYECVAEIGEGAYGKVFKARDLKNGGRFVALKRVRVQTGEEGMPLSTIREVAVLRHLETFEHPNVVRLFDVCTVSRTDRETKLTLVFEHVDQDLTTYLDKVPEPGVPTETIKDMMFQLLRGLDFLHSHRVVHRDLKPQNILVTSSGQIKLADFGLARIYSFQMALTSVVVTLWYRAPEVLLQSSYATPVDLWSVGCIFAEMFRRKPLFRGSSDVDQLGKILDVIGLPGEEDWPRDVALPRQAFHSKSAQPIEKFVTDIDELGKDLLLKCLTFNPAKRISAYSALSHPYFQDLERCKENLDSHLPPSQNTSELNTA
T1 sequence (P11802 whole entry): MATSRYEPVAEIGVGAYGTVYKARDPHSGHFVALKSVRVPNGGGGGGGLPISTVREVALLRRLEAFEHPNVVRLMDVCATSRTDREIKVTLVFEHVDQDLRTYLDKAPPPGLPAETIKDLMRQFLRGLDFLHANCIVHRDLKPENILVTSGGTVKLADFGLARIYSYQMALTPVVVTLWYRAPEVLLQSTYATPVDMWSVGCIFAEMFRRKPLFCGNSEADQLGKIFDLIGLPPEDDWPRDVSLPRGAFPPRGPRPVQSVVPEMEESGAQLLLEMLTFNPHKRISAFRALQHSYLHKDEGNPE
T1 sequence (P24385 whole entry partner): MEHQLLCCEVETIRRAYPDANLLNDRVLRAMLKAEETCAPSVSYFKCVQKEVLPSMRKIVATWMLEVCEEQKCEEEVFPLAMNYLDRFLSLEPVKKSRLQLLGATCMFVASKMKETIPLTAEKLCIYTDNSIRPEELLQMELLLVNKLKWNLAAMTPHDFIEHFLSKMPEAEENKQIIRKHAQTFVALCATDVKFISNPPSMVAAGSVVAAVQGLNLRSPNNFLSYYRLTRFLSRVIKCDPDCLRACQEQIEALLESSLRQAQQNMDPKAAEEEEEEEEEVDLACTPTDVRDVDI

| Compound | inhibition of phosphorylation of Rb (and downstream E2F1/cyclin A2) (phosphorylation of Rb) | degradation of CDK4 (CDK4; [6]) | degradation of CDK6 (CDK6; [6]) | also measured |
| --- | --- | --- | --- | --- |
| CC(=O)c1c(C)c2cnc(Nc3ccc(N4CCN(CCC5CC(CNc6cccc7c6C(=O)N(C6CCC(=O)NC6=O)C7=O)C5)CC4)cn3)nc2n(C2CCCC2)c1=O (stereo not drawn) [AM-01-125, 4-(((3-(2-(4-(6-((6-acetyl-8-cyclopentyl-5-methyl-7-oxo-7,8-dihydropyrido[2,3-d]pyrimidin-2-yl)amino)pyridin-3-yl)piperazin-1-yl)ethyl)cyclobutyl)methyl)amino)-2-(2,6-dioxopiperidin-3-yl)isoindoline-1,3-dione] | inhibit phosphorylation of Rb | effectively degrade CDK4/CDK6 | effectively degrade CDK4/CDK6 |  |
| CC(=O)c1c(C)c2cnc(Nc3ccc(N4CCN(CCC5CCN(c6ccc7c(c6)C(=O)N(C6CCC(=O)NC6=O)C7=O)CC5)CC4)cn3)nc2n(C2CCCC2)c1=O (stereo not drawn) [AM-01-269, 5-(4-(2-(4-(6-((6-acetyl-8-cyclopentyl-5-methyl-7-oxo-7,8-dihydropyrido[2,3-d]pyrimidin-2-yl)amino)pyridin-3-yl)piperazin-1-yl)ethyl)piperidin-1-yl)-2-(2,6-dioxopiperidin-3-yl)isoindoline-1,3-dione] | inhibiting phosphorylation of Rb | effective in degrading CDK4/6 | effective in degrading CDK4/6 |  |
| CC(=O)c1c(C)c2cnc(Nc3ccc(N4CCN(CCC5CCCCN5c5ccc6c(c5)C(=O)N(C5CCC(=O)NC5=O)C6=O)CC4)cn3)nc2n(C2CCCC2)c1=O (stereo not drawn) [AM-01-275, 6-(2-(2-(4-(6-((6-acetyl-8-cyclopentyl-5-methyl-7-oxo-7,8-dihydropyrido[2,3-d]pyrimidin-2-yl)amino)pyridin-3-yl)piperazin-1-yl)ethyl)piperidin-1-yl)-2-(2,6-dioxopiperidin-3-yl)-3a,4-dihydro-1H-isoindole-1,3(2H)-dione] | inhibiting phosphorylation of Rb | effective in degrading CDK4/6 | effective in degrading CDK4/6 |  |
| CC(=O)c1c(C)c2cnc(Nc3ccc(N4CCN(CC5CCN(c6ccc7c(c6)C(=O)N(C6CCC(=O)NC6=O)C7=O)CC5)CC4)cn3)nc2n(C2CCCC2)c1=O (stereo not drawn) [BSJ-03-096, 5-(4-((4-(6-((6-acetyl-8-cyclopentyl-5-methyl-7-oxo-7,8-dihydropyrido[2,3-d]pyrimidin-2-yl)amino)pyridin-3-yl)piperazin-1-yl)methyl)piperidin-1-yl)-2-(2,6-dioxopiperidin-3-yl)isoindoline-1,3-dione] | efficiently inhibit the phosphorylation of Rb protein; also recorded: effective inhibition of the phosphorylation of Rb | most significant degradation of both CDK4 and CDK6; also recorded: effective in degrading both CDK4 and CDK6; also recorded: high potency in degrading CDK4 and CDK6 | most significant degradation of both CDK4 and CDK6; also recorded: effective in degrading both CDK4 and CDK6; also recorded: high potency in degrading CDK4 and CDK6 | Cmax (Pharmacokinetic study; male, C57BL/6, mouse, plasma, po, single dose 10 mg/kg p.o.): 900 nM; concentration at 24 h (Pharmacokinetic study; male, C57BL/6, mouse, plasma, po, single dose 10 mg/kg p.o., read-out: plasma concentration at 24h post dosing): ~100 nM; metabolic stability (Pharmacokinetic study; single dose in mice, i.p. or p.o.): good metabolic stability; tumor response [1]: sensitive; durable tumor inhibition (percent) [2, 7]: −68.9%; durable tumor inhibition (percent) [3, 7]: −54.9%; selectivity in global proteomics (MOLT4 cells): highly selective for CDK4 and CDK6; degradation of CDK4 (CDK4; [8]): effectively degrade CDK4 and CDK6; inhibition of tumor growth [4]: effective in inhibiting tumor growth; degradation of CDK6 (CDK6; [8]): effectively degrade CDK4 and CDK6 |
| CC(=O)c1c(C)c2cnc(Nc3ccc(N4CCN(CCOCCOCCOCCNC(=O)COc5cccc6c5C(=O)N(C5CCC(=O)NC5=O)C6=O)CC4)cn3)nc2n(C2CCCC2)c1=O (stereo not drawn) [BSJ-03-123, N-(2-(2-(2-(2-(4-(6-((6-acetyl-8-cyclopentyl-5-methyl-7-oxo-7,8-dihydropyrido[2,3-d]pyrimidin-2-yl)amino)pyridin-3-yl)piperazin-1-yl)ethoxy)ethoxy)ethoxy)ethyl)-2-((2-(2,6-dioxopiperidin-3-yl)-1,3-dioxoisoindolin-4-yl)oxy)acetamide, reference compound] |  | not CDK4; also recorded: no effect on CDK4 | dose dependent targeting of CDK6; also recorded: effective CDK6 degradation; also recorded: dose-dependent degradation of CDK6 | inhibition of cell growth (MCF-7 parental cells): does not effectively inhibit the growth; inhibition of cell growth [5]: does not effectively inhibit the growth |
| CC(=O)c1c(C)c2cnc(Nc3ccc(N4CCN(CCC5CCN(c6cccc7c6C(=O)N(C6CCC(=O)NC6=O)C7=O)CC5)CC4)cn3)nc2n(C2CCCC2)c1=O (stereo not drawn) [MS-01-303, 4-(4-(2-(4-(6-((6-acetyl-8-cyclopentyl-5-methyl-7-oxo-7,8-dihydropyrido[2,3-d]pyrimidin-2-yl)amino)pyridin-3-yl)piperazin-1-yl)ethyl)piperidin-1-yl)-2-(2,6-dioxopiperidin-3-yl)isoindoline-1,3-dione] | inhibit phosphorylation of Rb | effectively degrade CDK4/CDK6 | effectively degrade CDK4/CDK6 |  |
| CC(=O)c1c(C)c2cnc(Nc3ccc(N4CCN(CCCC5CCN(c6cccc7c6C(=O)N(C6CCC(=O)NC6=O)C7=O)CC5)CC4)cn3)nc2n(C2CCCC2)c1=O (stereo not drawn) [MS-02-24] | inhibiting phosphorylation of Rb | effective in degrading CDK4/6 | effective in degrading CDK4/6 |  |
| CN(C)C(=O)c1cc2cnc(Nc3ccc(N4CCNCC4)cn3)nc2n1C1CCCC1 [ribociclib, reference compound] |  |  |  | tumor response [1]: sensitive; tumor response ([2]; ribociclib 25 mg/kg p.o.): tumor outgrowth after initial response; tumor response ([3]; ribociclib 25 mg/kg p.o.): tumor outgrowth after initial response; inhibition of tumor growth [4]: does not inhibit their growth effectively |
